Measurements as given in patent US20240382564A1, “Methods and Compositions for Treating Muscular Dystrophy and Memory Impairment” (Allysta Pharmaceuticals, Inc., priority 2023, published 2024).
Where no end group is shown, it is not given here. [ ]: non-standard residue; d: D form. Nva = CCC[C@H](N)C(=O)O

Tests used:
Assay type in all cases: in vivo, mouse
[1] = system: D2.mdx mice; experiment: Fibrosis by Masson's trichrome staining of muscle sections after ALY688 treatment
Description: D2.mdx mice were treated with ALY688 at two different dosages; high dose (HD; 15 mg/kg body weight/day) or low dose (LD; 3 mg/kg body weight/day) dissolved in saline. A separate group of mice were treated with saline alone (VEH, vehicle). Treatment was provided via subscapular subcutaneous injections from 7 days of age to 28-30 days. […] At 28-30 days of age, mice were anaesthetized with isoflurane vaporized in medical air (21% oxygen) at a 2 L/min flow rate. Due to tissue limitations in limb muscle, certain measures were performed separately in tibialis anterior and quadriceps across several phases of breeding. […]
Samples collected were cut into 8 µm thick serial cross sections with a cryostat (Thermo Fisher Scientific; Kalamazoo, MI, United States;) maintained at −20° C. on Fisherbrand Superfrost Plus slides (Thermo Fisher Scientific). […] Centralized nuclei, a marker of regenerating fibres, was analyzed by selecting five evenly spaced images throughout the muscle and averaging the result. Areas of damage (fibres with fragmented sarcoplasm and immune cell infiltration) were expressed as a percentage of the entire muscle section. Images were taken using EVOS M7000 imager (Thermo Fisher Scientific) using 20× magnification and analyzed using ImageJ (http://imagej.nih.gov/ij/). […] These images were then analyzed with ImageJ for minimal Feret's diameter as an index of muscle atrophy.

[2] = system: D2.mdx mice; experiment: Hippocampal cytokine mRNA by quantitative PCR; settings: 15 mg/kg daily
Description: Male D2.mdx mice originated from a colony maintained at York University (Toronto, Canada) and sourced from Jackson Laboratories (Stock Number 013141, Bar Harbor, United States). Mice were treated daily from days 7 to 28 of age with ALY688 at 15 mg/kg b.w. (D2.mdx-ALY688) or saline control (D2.mdx-VEH). This age was chosen given it captures an early stage of disease progression in cardiac and skeletal muscle. Mice were sacrificed 20-24 hr after the last dose. Breeding of wildtype mice was unsuccessful. […]
Total RNA was isolated from hippocampus using the Aurum Total RNA Mini Kit (Bio-Rad; Mississauga, ON, Canada) according to manufacturer's instructions, and reverse transcribed into cDNA by M-MLV reverse transcriptase and oligo (dT) primers (Qiagen). cDNA was then amplified in a CFX384 Touch Real-Time PCR Detection Systems (Bio-Rad) with a SYBR Green master mix and specific primers. Gene expression was normalized to a Rplp0 control and relative differences were determined using the ΔΔCt method (Livak, K. J., & Schmittgen, T. D. (2001). Analysis of relative gene expression data using real-time quantitative PCR and the 2(-Delta Delta C(T)) Method. Methods, 25 (4), 402-408. doi: 10.1006/meth.2001.1262), normalized to D2A expression. […]

[3] = system: D2.mdx mice; experiment: Cardiac (RV, LV) mitochondrial H2O2 emission and ADP-stimulated respiration
Description: D2.mdx mice were treated daily subcutaneously beginning at 7 days of age for 3 weeks at 1 μL/g with ALY688 at 15 mg/kg body weight (high dose drug; HD) or with a saline (VEH) control. Mice were compared to age-matched wildtypes (DBA/2J). […] However, ADP-stimulated respiration supported by pyruvate was increased in VEH (36%) and HD (46%) vs wildtype whereas HD had no effect vs VEH.

Substance: [dN]IP[Nva]LY[dS]FA[dS]-NH2 [ALY688]
- attenuation of diaphragm fibrosis (collagen content) ([1]; diaphragm, both doses (LD 3, HD 15 mg/kg/day s.c., 7 to 28-30 days of age)): 66.7-67.6%
- partial prevention of fibrosis and atrophy in tibialis anterior ([1]; tibialis anterior): not observed
- hippocampal mRNA of IL-6, TNF-α or IL-10 [2]: No significant changes
- ADP-stimulated respiration supported by pyruvate, HD vs VEH ([3]; LV): no effect
- ADP-stimulated respiration supported by pyruvate, increase vs wildtype ([3]; LV, HD, VEH 36%): 46%
- mH2O2 emissions supported by pyruvate ([3]; LV, between groups): not different between groups
- ADP-stimulated respiration supported by pyruvate ([3]; RV, HD, VEH −49% vs wildtype): completely rescued
- mH2O2 emission stimulated by pyruvate ([3]; RV, HD, range of [ADP], VEH +88% vs wildtype): did not change
